Results as given in US8450304B2, “4-azetidinyl-1-heteroaryl-cyclohexanol antagonists of CCR2” (Janssen Pharmaceutica N.V., priority 2008, dated 2013).

Target: T1, CCR2 (Homo sapiens, UniProt P41597)
T1 construct: host or cells: THP-1 (human monocytic cell line), whole cells
Assay: MCP-1 Receptor Binding Assay in THP-1 Cells
Details: 0.5 nM 125I labeled MCP-1, 2 hours at 30° C., read-out: Inhibition of MCP-1 Binding IC50, CCR2 Binding
Experimental: Compounds of the invention were subjected to various representative biological tests. […] MCP-1 Receptor Binding Assay in THP-1 Cells
Human monocytic cell line THP-1 cells were obtained from American Type Culture Collection (Manassas, Va., USA). […] The cell density was maintained […].
1 μM cold MCP-1 was used for nonspecific binding.

T1 sequence (P41597 whole entry): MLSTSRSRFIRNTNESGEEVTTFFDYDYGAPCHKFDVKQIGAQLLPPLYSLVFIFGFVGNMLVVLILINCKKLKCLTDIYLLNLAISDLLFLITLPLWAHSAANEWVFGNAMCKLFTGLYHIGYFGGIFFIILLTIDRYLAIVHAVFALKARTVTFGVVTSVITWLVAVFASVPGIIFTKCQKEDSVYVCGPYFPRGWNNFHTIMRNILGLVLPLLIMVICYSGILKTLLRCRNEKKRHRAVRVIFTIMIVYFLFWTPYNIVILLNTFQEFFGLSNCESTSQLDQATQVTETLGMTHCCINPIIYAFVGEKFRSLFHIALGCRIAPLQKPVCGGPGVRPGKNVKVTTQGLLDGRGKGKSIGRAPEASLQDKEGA

IC50 | Compound
6450 nM | COc1ccc(C2(O)CCC(N3CC(NC(=O)CNC(=O)c4ccc(C(F)(F)F)cc4)C3)CC2)cn1 (stereo not drawn) [Example 16, N-({1-[4-Hydroxy-4-(6-methoxy-pyridin-3-yl)-cyclohexyl]-azetidin-3-ylcarbamoyl}-methyl)-4-trifluoromethyl-benzamide]
6400 nM | COc1ccc(C2(O)CCC(N3CC(NC(=O)CNC(=O)c4cc(F)c(F)c(F)c4)C3)CC2)cn1 (stereo not drawn) [Example 17, 3,4,5-Trifluoro-N-({1-[4-hydroxy-4-(6-methoxy-pyridin-3-yl)-cyclohexyl]-azetidin-3-ylcarbamoyl}-methyl)-benzamide]
120 nM | COc1ccc(C2(O)CCC(N3CC(NC(=O)CNC(=O)c4ccc(Cl)c(Cl)c4)C3)CC2)cn1 (stereo not drawn) [Example 18, 3,4-Dichloro-N-({1-[4-hydroxy-4-(6-methoxy-pyridin-3-yl)-cyclohexyl]-azetidin-3-ylcarbamoyl}-methyl)-benzamide]
4300 nM | COc1ccc(C2(O)CCC(N3CC(NC(=O)CNC(=O)c4cc(F)cc(F)c4)C3)CC2)cn1 (stereo not drawn) [Example 19, 3,5-Difluoro-N-({1-[4-hydroxy-4-(6-methoxy-pyridin-3-yl)-cyclohexyl]-azetidin-3-ylcarbamoyl}-methyl)-benzamide]
6900 nM | COc1ccc(C2(O)CCC(N3CC(NC(=O)CNC(=O)c4ccc5c(c4)OCO5)C3)CC2)cn1 (stereo not drawn) [Example 20, Benzo[1,3]dioxole-5-carboxylic acid ({1-[4-hydroxy-4-(6-methoxy-pyridin-3-yl)-cyclohexyl]-azetidin-3-ylcarbamoyl}-methyl)-amide]
7500 nM | COc1ccc(C2(O)CCC(N3CC(NC(=O)CNC(=O)c4cccc(C#N)c4)C3)CC2)cn1 (stereo not drawn) [Example 21, 3-Cyano-N-({1-[4-hydroxy-4-(6-methoxy-pyridin-3-yl)-cyclohexyl]-azetidin-3-ylcarbamoyl}-methyl)-benzamide]
2300 nM | COc1ccc(C2(O)CCC(N3CC(NC(=O)CNC(=O)c4cccc(C)c4)C3)CC2)cn1 (stereo not drawn) [Example 22, N-({1-[4-Hydroxy-4-(6-methoxy-pyridin-3-yl)-cyclohexyl]-azetidin-3-ylcarbamoyl}-methyl)-3-methyl-benzamide]
14500 nM | COc1cccc(C(=O)NCC(=O)NC2CN(C3CCC(O)(c4ccc(OC)nc4)CC3)C2)c1 (stereo not drawn) [Example 23, N-({1-[4-Hydroxy-4-(6-methoxy-pyridin-3-yl)-cyclohexyl]-azetidin-3-ylcarbamoyl}-methyl)-3-methoxy-benzamide]
1600 nM | COc1ccc(C2(O)CCC(N3CC(NC(=O)CNC(=O)c4cccc(Cl)c4)C3)CC2)cn1 (stereo not drawn) [Example 24, 3-Chloro-N-({1-[4-hydroxy-4-(6-methoxy-pyridin-3-yl)-cyclohexyl]-azetidin-3-ylcarbamoyl}-methyl)-benzamide]
560 nM | O=C(CNC(=O)c1cccc(C(F)(F)F)c1)NC1CN(C2CCC(O)(c3cnc(O)s3)CC2)C1 (stereo not drawn) [Example 48, N-({1-[4-Hydroxy-4-(2-hydroxy-thiazol-5-yl)-cyclohexyl]-azetidin-3-ylcarbamoyl}-methyl)-3-trifluoromethyl-benzamide]
260 nM | Nc1ncc(C2(O)CCC(N3CC(NC(=O)CNC(=O)c4cccc(C(F)(F)F)c4)C3)CC2)s1 (stereo not drawn) [Example 49, N-({1-[4-(2-Amino-thiazol-5-yl)-4-hydroxy-cyclohexyl]-azetidin-3-ylcarbamoyl}-methyl)-3-trifluoromethyl-benzamide]
560 nM | CN(C)c1ncc(C2(O)CCC(N3CC(NC(=O)CNC(=O)c4cccc(C(F)(F)F)c4)C3)CC2)s1 (stereo not drawn) [Example 50, N-({1-[4-(2-Dimethylamino-thiazol-5-yl)-4-hydroxy-cyclohexyl]-azetidin-3-ylcarbamoyl}-methyl)-3-trifluoromethyl-benzamide]
3300 nM | O=C(CNC(=O)c1cccc(C(F)(F)F)c1)NC1CN(C2CCC(O)(c3cnc(N4CCCC4)s3)CC2)C1 (stereo not drawn) [Example 51, N-({1-[4-Hydroxy-4-(2-pyrrolidin-1-yl-thiazol-5-yl)-cyclohexyl]-azetidin-3-ylcarbamoyl}-methyl)-3-trifluoromethyl-benzamide]
73 nM | COc1ncc(C2(O)CCC(N3CC(NC(=O)CNC(=O)c4cccc(C(F)(F)F)c4)C3)CC2)s1 (stereo not drawn) [Example 52, N-({1-[4-Hydroxy-4-(2-methoxy-thiazol-5-yl)-cyclohexyl]-azetidin-3-ylcarbamoyl}-methyl)-3-trifluoromethyl-benzamide]
1200 nM | N#CNc1ncc(C2(O)CCC(N3CC(NC(=O)CNC(=O)c4cccc(C(F)(F)F)c4)C3)CC2)s1 (stereo not drawn) [Example 55, N-({1-[4-(2-Cyanoamino-thiazol-5-yl)-4-hydroxy-cyclohexyl]-azetidin-3-ylcarbamoyl}-methyl)-3-trifluoromethyl-benzamide]
310 nM | CN(C)Cc1ncc(C2(O)CCC(N3CC(NC(=O)CNC(=O)c4cccc(C(F)(F)F)c4)C3)CC2)s1 (stereo not drawn) [Example 56, N-({1-[4-(2-Dimethylaminomethyl-thiazol-5-yl)-4-hydroxy-cyclohexyl]-azetidin-3-ylcarbamoyl}-methyl)-3-trifluoromethyl-benzamide]
230 nM | O=C(CNC(=O)c1cccc(C(F)(F)F)c1)NC1CN(C2CCC(O)(c3cc(Br)cs3)CC2)C1 (stereo not drawn) [Example 60, N-({1-[4-(4-Bromo-thiophen-2-yl)-4-hydroxy-cyclohexyl]-azetidin-3-ylcarbamoyl}-methyl)-3-trifluoromethyl-benzamide]
1000 nM | O=C(CNC(=O)c1cccc(C(F)(F)F)c1)NC1CN(C2CCC(O)(c3nc4ccccc4o3)CC2)C1 (stereo not drawn) [Example 63, N-{[1-(4-Benzooxazol-2-yl-4-hydroxy-cyclohexyl)-azetidin-3-ylcarbamoyl]-methyl}-3-trifluoromethyl-benzamide]
70 nM | O=C(CNC(=O)c1cc(F)cc(C(F)(F)F)c1)NC1CN(C2CCC(O)(c3cncs3)CC2)C1 (stereo not drawn) [Example 65, 3-Fluoro-N-{[1-(4-hydroxy-4-thiazol-5-yl-cyclohexyl)-azetidin-3-ylcarbamoyl]-methyl}-5-trifluoromethyl-benzamide]
500 nM | O=C(CNC(=O)c1cc(C(F)(F)F)ccc1C(F)(F)F)NC1CN(C2CCC(O)(c3nccs3)CC2)C1 (stereo not drawn) [Example 68, N-{[1-(4-Hydroxy-4-thiazol-2-yl-cyclohexyl)-azetidin-3-ylcarbamoyl]-methyl}-2,5-bis-trifluoromethyl-benzamide]

Compound | IC50
CC(C)(C)Oc1ncc(C2(O)CCC(N3CC(NC(=O)CNC(=O)c4cccc(C(F)(F)F)c4)C3)CC2)s1 (stereo not drawn) [Example 54, N-({1-[4-(2-tert-Butoxy-thiazol-5-yl)-4-hydroxy-cyclohexyl]-azetidin-3-ylcarbamoyl}-methyl)-3-trifluoromethyl-benzamide] | 280 nM
